Columns and labels:
Assay in all cases: relative viability (nuclei count vs DMSO), 5 days (fraction); higher = more cells survive
LU99A = tested on: LU99A
Summary of the method: (§1)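 Five library-drug doses in √10 steps were combined with a fixed anchor-drug dose, or a single drug was given alone, by pin tool to lung cancer cell lines in 1536-well plates the day after seeding. Nuclei were stained and counted after 5 days. Relative viability is the nuclei count in treated wells over that in vehicle wells, taken as the median of duplicate plates.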

NCI-H1792 = tested on: NCI-H1792
Summary of the method: as §1

NCI-H1651 = tested on: NCI-H1651
Summary of the method: as §1

HCC-44 = tested on: HCC-44
Summary of the method: as §1

NCI-H1666 = tested on: NCI-H1666
Summary of the method: as §1

NCI-H1755 = tested on: NCI-H1755
Summary of the method: as §1

NCI-H1650 = tested on: NCI-H1650
Summary of the method: as §1

BEN = tested on: BEN
Summary of the method: as §1

NCI-H2087 = tested on: NCI-H2087
Summary of the method: as §1

PC-14 = tested on: PC-14
Summary of the method: as §1

NCI-H1993 = tested on: NCI-H1993
Summary of the method: as §1

COR-L23 = tested on: COR-L23
Summary of the method: as §1

NCI-H520 = tested on: NCI-H520
Summary of the method: as §1

NCI-H1355 = tested on: NCI-H1355
Summary of the method: as §1

NCI-H1437 = tested on: NCI-H1437
Summary of the method: as §1

NCI-H460 = tested on: NCI-H460
Summary of the method: as §1

LXF-289 = tested on: LXF-289
Summary of the method: as §1

NCI-H1563 = tested on: NCI-H1563
Summary of the method: as §1

CAL-12T = tested on: CAL-12T
Summary of the method: as §1

NCI-H2085 = tested on: NCI-H2085
Summary of the method: as §1

CCNC(=O)c1noc(-c2cc(C(C)C)c(O)cc2O)c1-c1ccc(CN2CCOCC2)cc1 [Luminespib] + CC(C)C[C@H](NC(=O)[C@H](Cc1ccccc1)NC(=O)c1cnccn1)B(O)O [Bortezomib] (partner 0.002 µM)
relative viability (LU99A; first compound 0.002 µM): 1.3 | relative viability (LU99A; first compound 0.006325 µM): 1.11 | relative viability (LU99A; first compound 0.02 µM): 0.538 | relative viability (LU99A; first compound 0.06325 µM): 0.105 | relative viability (LU99A; first compound 0.2 µM): 0.117 | relative viability (NCI-H1792; first compound 0.002 µM): 0.93 | relative viability (NCI-H1792; first compound 0.006325 µM): 0.888 | relative viability (NCI-H1792; first compound 0.02 µM): 0.633 | relative viability (NCI-H1792; first compound 0.06325 µM): 0.478 | relative viability (NCI-H1792; first compound 0.2 µM): 0.36 | relative viability (NCI-H1651; first compound 0.002 µM): 0.947 | relative viability (NCI-H1651; first compound 0.006325 µM): 0.864 | relative viability (NCI-H1651; first compound 0.02 µM): 0.91 | relative viability (NCI-H1651; first compound 0.06325 µM): 0.89 | relative viability (NCI-H1651; first compound 0.2 µM): 0.793 | relative viability (HCC-44; first compound 0.002 µM): 0.895 | relative viability (HCC-44; first compound 0.006325 µM): 0.881 | relative viability (HCC-44; first compound 0.02 µM): 1.09 | relative viability (HCC-44; first compound 0.06325 µM): 0.139 | relative viability (HCC-44; first compound 0.2 µM): 0.145 | relative viability (NCI-H1666; first compound 0.002 µM): 0.871 | relative viability (NCI-H1666; first compound 0.006325 µM): 0.86 | relative viability (NCI-H1666; first compound 0.02 µM): 0.74 | relative viability (NCI-H1666; first compound 0.06325 µM): 0.725 | relative viability (NCI-H1666; first compound 0.2 µM): 0.74 | relative viability (NCI-H1755; first compound 0.002 µM): 0.992 | relative viability (NCI-H1755; first compound 0.006325 µM): 0.909 | relative viability (NCI-H1755; first compound 0.02 µM): 0.954 | relative viability (NCI-H1755; first compound 0.06325 µM): 0.528 | relative viability (NCI-H1755; first compound 0.2 µM): 0.169 | relative viability (NCI-H1650; first compound 0.002 µM): 0.209 | relative viability (NCI-H1650; first compound 0.006325 µM): 0.193 | relative viability (NCI-H1650; first compound 0.02 µM): 0.201 | relative viability (NCI-H1650; first compound 0.06325 µM): 0.222 | relative viability (NCI-H1650; first compound 0.2 µM): 0.194 | relative viability (BEN; first compound 0.002 µM): 0.914 | relative viability (BEN; first compound 0.006325 µM): 0.542 | relative viability (BEN; first compound 0.02 µM): 0.438 | relative viability (BEN; first compound 0.06325 µM): 0.424 | relative viability (BEN; first compound 0.2 µM): 0.239 | relative viability (NCI-H2087; first compound 0.002 µM): 1.03 | relative viability (NCI-H2087; first compound 0.006325 µM): 0.676 | relative viability (NCI-H2087; first compound 0.02 µM): 0.796 | relative viability (NCI-H2087; first compound 0.06325 µM): 0.141 | relative viability (NCI-H2087; first compound 0.2 µM): 0.142 | relative viability (PC-14; first compound 0.002 µM): 0.956 | relative viability (PC-14; first compound 0.006325 µM): 0.788 | relative viability (PC-14; first compound 0.02 µM): 0.988 | relative viability (PC-14; first compound 0.06325 µM): 0.314 | relative viability (PC-14; first compound 0.2 µM): 0.0725 | relative viability (NCI-H1993; first compound 0.002 µM): 0.998 | relative viability (NCI-H1993; first compound 0.006325 µM): 1.12 | relative viability (NCI-H1993; first compound 0.02 µM): 0.68 | relative viability (NCI-H1993; first compound 0.06325 µM): 0.816 | relative viability (NCI-H1993; first compound 0.2 µM): 0.374 | relative viability (COR-L23; first compound 0.002 µM): 1.02 | relative viability (COR-L23; first compound 0.006325 µM): 0.85 | relative viability (COR-L23; first compound 0.02 µM): 0.718 | relative viability (COR-L23; first compound 0.06325 µM): 0.079 | relative viability (COR-L23; first compound 0.2 µM): 0.079 | relative viability (NCI-H520; first compound 0.002 µM): 0.556 | relative viability (NCI-H520; first compound 0.006325 µM): 0.51 | relative viability (NCI-H520; first compound 0.02 µM): 0.41 | relative viability (NCI-H520; first compound 0.06325 µM): 0.103 | relative viability (NCI-H520; first compound 0.2 µM): 0.109 | relative viability (NCI-H1355; first compound 0.002 µM): 1.14 | relative viability (NCI-H1355; first compound 0.006325 µM): 1.12 | relative viability (NCI-H1355; first compound 0.02 µM): 0.571 | relative viability (NCI-H1355; first compound 0.06325 µM): 1 | relative viability (NCI-H1355; first compound 0.2 µM): 0.182 | relative viability (NCI-H1437; first compound 0.002 µM): 0.511 | relative viability (NCI-H1437; first compound 0.006325 µM): 0.38 | relative viability (NCI-H1437; first compound 0.02 µM): 0.431 | relative viability (NCI-H1437; first compound 0.06325 µM): 0.247 | relative viability (NCI-H1437; first compound 0.2 µM): 0.0895 | relative viability (NCI-H460; first compound 0.002 µM): 1.09 | relative viability (NCI-H460; first compound 0.006325 µM): 1.14 | relative viability (NCI-H460; first compound 0.02 µM): 0.0229 | relative viability (NCI-H460; first compound 0.06325 µM): 0.011 | relative viability (NCI-H460; first compound 0.2 µM): 0.0138 | relative viability (LXF-289; first compound 0.002 µM): 0.969 | relative viability (LXF-289; first compound 0.006325 µM): 0.951 | relative viability (LXF-289; first compound 0.02 µM): 1.04 | relative viability (LXF-289; first compound 0.06325 µM): 0.373 | relative viability (LXF-289; first compound 0.2 µM): 0.105 | relative viability (NCI-H1563; first compound 0.002 µM): 0.956 | relative viability (NCI-H1563; first compound 0.006325 µM): 0.821 | relative viability (NCI-H1563; first compound 0.02 µM): 0.535 | relative viability (NCI-H1563; first compound 0.06325 µM): 0.479 | relative viability (NCI-H1563; first compound 0.2 µM): 0.507 | relative viability (CAL-12T; first compound 0.002 µM): 1.04 | relative viability (CAL-12T; first compound 0.006325 µM): 0.929 | relative viability (CAL-12T; first compound 0.02 µM): 0.539 | relative viability (CAL-12T; first compound 0.06325 µM): 0.147 | relative viability (CAL-12T; first compound 0.2 µM): 0.149 | relative viability (NCI-H2085; first compound 0.002 µM): 0.979 | relative viability (NCI-H2085; first compound 0.006325 µM): 0.94 | relative viability (NCI-H2085; first compound 0.02 µM): 0.818 | relative viability (NCI-H2085; first compound 0.06325 µM): 0.509 | relative viability (NCI-H2085; first compound 0.2 µM): 0.344

— the supplement of paper PMC10307832
